According to the supplement of paper PMC6045584:
± gives the standard deviation of the averaged measurements.

What was measured:
AFATINIB = compound: CN(C)C/C=C/C(=O)Nc1cc2c(Nc3ccc(F)c(Cl)c3)ncnc2cc1O[C@H]1CCOC1 [AFATINIB]; assay: surviving fraction relative to DMSO-only wells; higher = less growth inhibition; settings: exposure time: 5 days
In short: (§1)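 Lines were retained only if, across three screens, replicate Pearson r was >0.7 and median Z' was >0.3. Viability was measured as CellTiter-Glo luminescence and reported as surviving fraction relative to the median of DMSO-only wells. Readings followed 10 minutes at room temperature, after log-phase tumour cells seeded at 250–500 per well in 384-well plates had been exposed, from 24 hours after seeding, continuously for five days to inhibitors at 0.5, 1, 5, 10, 50, 100, 500 and 1000 nM.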

SNX-5422 = compound: CC1(C)CC(=O)c2c(C(F)(F)F)nn(-c3ccc(C(N)=O)c(N[C@H]4CC[C@H](OC(=O)CN)CC4)c3)c2C1 [SNX-5422]; assay: as above; settings: exposure time: 5 days
In short: as §1

Row | Test System | surviving fraction (AFATINIB; 0.5 nM) | surviving fraction (AFATINIB; 1 nM) | surviving fraction (AFATINIB; 5 nM) | surviving fraction (AFATINIB; 10 nM) | surviving fraction (AFATINIB; 50 nM) | surviving fraction (AFATINIB; 100 nM) | surviving fraction (AFATINIB; 500 nM) | surviving fraction (AFATINIB; 1000 nM) | surviving fraction (SNX-5422; 0.5 nM) | surviving fraction (SNX-5422; 1 nM) | surviving fraction (SNX-5422; 5 nM) | surviving fraction (SNX-5422; 10 nM) | surviving fraction (SNX-5422; 50 nM) | surviving fraction (SNX-5422; 100 nM) | surviving fraction (SNX-5422; 500 nM) | surviving fraction (SNX-5422; 1000 nM)
1 | SIHA CERVIX | 1.05 ± 0.025 | 1.06 ± 0.069 | 1.02 ± 0.022 | 1.01 ± 0.064 | 1.03 ± 0.011 | 1.07 ± 0.085 | 0.845 ± 0.019 | 0.684 ± 0.052 | 1.11 ± 0.1 | 1.1 ± 0.096 | 1.21 ± 0.055 | 1.23 ± 0.095 | 0.423 ± 0.034 | 0.262 ± 0.002 | 0.2 ± 0.0087 | 0.188 ± 0.0084
2 | SKBR3 BREAST | 0.866 ± 0.033 | 0.699 ± 0.049 | 0.322 ± 0.015 | 0.265 ± 0.013 | 0.167 ± 0.011 | 0.131 ± 0.007 | 0.119 ± 0.0076 | 0.122 ± 0.006 | 0.866 ± 0.051 | 0.932 ± 0.25 | 0.93 ± 0.068 | 0.841 ± 0.051 | 0.439 ± 0.024 | 0.432 ± 0.035 | 0.192 ± 0.01 | 0.181 ± 0.002
3 | SNU475 LIVER | 1.01 ± 0.03 | 0.985 ± 0.029 | 0.953 ± 0.062 | 0.937 ± 0.028 | 0.922 ± 0.024 | 0.893 ± 0.054 | 0.717 ± 0.012 | 0.432 ± 0.027 | 1.024 ± 0.0066 | 1.05 ± 0.045 | 1.06 ± 0.016 | 1.01 ± 0.068 | 0.565 ± 0.033 | 0.358 ± 0.011 | 0.245 ± 0.014 | 0.234 ± 0.012
4 | SUM44 BREAST | 1.04 ± 0.053 | 1 ± 0.054 | 1.01 ± 0.023 | 0.995 ± 0.077 | 1.07 ± 0.027 | 1.03 ± 0.022 | 0.859 ± 0.034 | 0.448 ± 0.047 | 1.02 ± 0.035 | 0.987 ± 0.043 | 0.974 ± 0.013 | 0.867 ± 0.024 | 0.604 ± 0.015 | 0.589 ± 0.04 | 0.495 ± 0.041 | 0.471 ± 0.048
5 | SUM149 BREAST | 1.03 ± 0.076 | 1.05 ± 0.033 | 0.703 ± 0.12 | 0.573 ± 0.089 | 0.481 ± 0.056 | 0.439 ± 0.013 | 0.4053 ± 0.004 | 0.339 ± 0.044 | 0.982 ± 0.046 | 0.986 ± 0.14 | 1.09 ± 0.1 | 0.951 ± 0.097 | 0.0727 ± 0.0076 | 0.082 ± 0.0095 | 0.0233 ± 0.0021 | 0.0287 ± 0.0015
6 | SUM149.B1*.S BREAST | 1.11 ± 0.014 | 1.11 ± 0.061 | 1.05 ± 0.02 | 1.05 ± 0.037 | 0.966 ± 0.03 | 0.972 ± 0.045 | 0.916 ± 0.022 | 0.798 ± 0.044 | 1.06 ± 0.037 | 1.12 ± 0.032 | 1.09 ± 0.021 | 1.08 ± 0.037 | 0.385 ± 0.022 | 0.226 ± 0.017 | 0.0997 ± 0.0045 | 0.0978 ± 0.0067
7 | SUM159 BREAST | 1.07 ± 0.02 | 1.03 ± 0.061 | 1.07 ± 0.023 | 0.942 ± 0.13 | 0.943 ± 0.15 | 0.886 ± 0.27 | 0.896 ± 0.23 | 0.867 ± 0.27 | 1.11 ± 0.11 | 1.13 ± 0.098 | 1.16 ± 0.17 | 1.15 ± 0.17 | 0.6 ± 0.084 | 0.316 ± 0.015 | 0.064 ± 0.0036 | 0.0623 ± 0.0015
8 | SYO1 SYNOVIAL | 0.996 ± 0.057 | 1.03 ± 0.027 | 0.948 ± 0.059 | 0.995 ± 0.026 | 0.95 ± 0.017 | 0.952 ± 0.042 | 0.606 ± 0.035 | 0.324 ± 0.02 | 1.03 ± 0.031 | 0.993 ± 0.089 | 1.02 ± 0.016 | 0.846 ± 0.059 | 0.122 ± 0.049 | 0.0776 ± 0.021 | 0.0327 ± 0.0032 | 0.0335 ± 0.0013
9 | T47D BREAST | 1.06 ± 0.033 | 1.04 ± 0.06 | 1.01 ± 0.031 | 0.98 ± 0.023 | 1.04 ± 0.013 | 1.08 ± 0.022 | 1.07 ± 0.054 | 0.939 ± 0.037 | 1.08 ± 0.018 | 1.06 ± 0.018 | 1.08 ± 0.035 | 1.06 ± 0.019 | 0.492 ± 0.033 | 0.512 ± 0.016 | 0.31 ± 0.0074 | 0.288 ± 0.0079
10 | U2OS BONE | 1.075 ± 0.001 | 1.05 ± 0.044 | 1.06 ± 0.013 | 1.02 ± 0.024 | 1.05 ± 0.0055 | 1.04 ± 0.056 | 0.838 ± 0.021 | 0.646 ± 0.0085 | 1.04 ± 0.019 | 1.06 ± 0.04 | 1.08 ± 0.015 | 1.06 ± 0.041 | 0.644 ± 0.018 | 0.257 ± 0.021 | 0.066 ± 0.0035 | 0.0757 ± 0.0023
11 | VCAP PROSTATE | 1.07 ± 0.14 | 1 ± 0.16 | 1.06 ± 0.093 | 1.06 ± 0.051 | 1.06 ± 0.064 | 1.03 ± 0.14 | 0.723 ± 0.14 | 0.405 ± 0.043 | 1.13 ± 0.051 | 1.03 ± 0.057 | 1.08 ± 0.081 | 1.15 ± 0.086 | 0.279 ± 0.024 | 0.141 ± 0.0038 | 0.165 ± 0.0055 | 0.161 ± 0.013
12 | VP229 BREAST | 1.1 ± 0.11 | 1.03 ± 0.13 | 0.645 ± 0.079 | 0.586 ± 0.076 | 0.324 ± 0.011 | 0.273 ± 0.04 | 0.272 ± 0.021 | 0.165 ± 0.025 | 1.286 ± 0.012 | 1.15 ± 0.17 | 1.12 ± 0.08 | 1.03 ± 0.16 | 0.612 ± 0.034 | 0.628 ± 0.1 | 0.0873 ± 0.019 | 0.088 ± 0.011
13 | YAMATO SYNOVIAL | 1.22 ± 0.061 | 1.34 ± 0.096 | 1.32 ± 0.15 | 1.18 ± 0.0093 | 1.23 ± 0.037 | 1.27 ± 0.07 | 1.16 ± 0.035 | 0.739 ± 0.02 | 1.2 ± 0.21 | 1.15 ± 0.13 | 1.23 ± 0.096 | 1.17 ± 0.086 | 0.971 ± 0.21 | 0.339 ± 0.031 | 0.318 ± 0.028 | 0.382 ± 0.031
14 | ZR751 BREAST | 1.14 ± 0.15 | 0.982 ± 0.17 | 0.979 ± 0.058 | 0.926 ± 0.13 | 0.746 ± 0.097 | 0.87 ± 0.1 | 0.671 ± 0.083 | 0.536 ± 0.068 | 1.04 ± 0.12 | 1.45 ± 0.57 | 1.08 ± 0.11 | 1.34 ± 0.18 | 0.652 ± 0.071 | 0.513 ± 0.036 | 0.218 ± 0.024 | 0.217 ± 0.017
